# Source: US8921576B2, “Spiroindoline compound, and medicinal agent comprising same” (Kowa Company, Ltd., priority 2011, dated 2014)
# Molecular target: T1, GST-GK derived from human liver GK (Homo sapiens, UniProt P35557)
# T1 construct: made in house; host or cells: Escherichia coli DH5α
# T1 sequence (P35557 1-466 isoform P35557-2): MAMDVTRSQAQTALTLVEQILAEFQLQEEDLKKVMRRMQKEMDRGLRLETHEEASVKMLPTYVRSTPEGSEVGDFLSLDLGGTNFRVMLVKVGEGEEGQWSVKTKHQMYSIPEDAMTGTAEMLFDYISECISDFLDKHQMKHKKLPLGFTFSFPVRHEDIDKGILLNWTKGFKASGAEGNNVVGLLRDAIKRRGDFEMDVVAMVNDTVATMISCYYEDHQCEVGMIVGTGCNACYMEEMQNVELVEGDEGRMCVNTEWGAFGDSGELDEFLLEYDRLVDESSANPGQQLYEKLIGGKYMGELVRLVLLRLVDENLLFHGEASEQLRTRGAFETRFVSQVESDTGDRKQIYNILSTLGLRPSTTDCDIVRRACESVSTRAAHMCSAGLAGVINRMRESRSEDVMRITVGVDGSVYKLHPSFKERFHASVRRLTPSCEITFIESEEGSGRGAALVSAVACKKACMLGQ
# Experiment: In vitro GK activity measurement test (G6PDH-coupled, OD340)
# Assay type: biochemical
# Details: test compound 1 μmol/L; glucose 2.5 mmol/L; 25° C.; OD340 slope with compound / without compound; read-out: GK activation rate (%)
# Text: cDNA (GenBank Accession No. NM_033507, human glucokinase, variant 2) encoding human liver-type GK polypeptide was cloned by performing a polymerase chain reaction (hereinafter referred to as “PCR”) using a human liver cDNA library (Human liver QUICK-Clone cDNA, TAKARA BIO INC.), and the thus cloned cDNA was then introduced into an expression vector (pGEX-3X, GE Healthcare Japan) for glutathione S transferase (hereinafter referred to as GST) fusion protein expression. The resulting vector was introduced into Escherichia coli (Competent high DH5α, Toyobo Co., Ltd.), and the transformed Escherichia coli was then cultured at 37° C. Thereafter, Isopropyl β-D-1-thiogalactopyranoside (final concentration: 1 mmol/L, Sigma Aldrich Japan) was added to the culture, and the obtained mixture was then cultured at 30° C. for 3 hours. Thereafter, a cell mass was recovered. The recovered cell mass was subjected to freezing-and-thawing, and the resulting cell mass was then suspended in phosphate buffer with final concentration of 1% Triton X-100, followed by disintegration with an ultrasonic disruptor. The homogenate was centrifuged at 33,200 rpm at 4° C. for 1 hour. Thereafter, the supernatant was recovered, and a GST-GK fusion protein was then purified using a glutathione column (GSTrap FF, GE Healthcare Japan). The obtained GST-GK fusion protein was divided into some portions each having a small volume, and the thus divided proteins were then preserved at −80° C.
# A GK assay method was carried out at 25° C. at a final incubation volume of 100 μL in a flat-bottom 96-well assay plate. An assay buffer comprised 25 mmol/L Hepes buffer (pH 7.1), 25 mmol/L KCl, 2.5 mmol/L or 10 mmol/L D-glucose, 5 mmol/L ATP, 1 mmol/L nicotinamide adenine dinucleotide phosphate (abbreviated as NADP), 2 mmol/L MgCl2, 1 mmol/L dithiothreitol (DTT), 2 units/mL glucose-6 phosphate dehydrogenase (G6PDH), and 1 μg/mL GST-GK derived from human liver GK. ATP, G6PDH, and NADP were purchased from Roche Diagnostics. […] The thus mixed solution was preincubated in an incubator in which the temperature was controlled at 25° C. for 15 minutes. Subsequently, the reaction was initiated by adding 10 μL of the GST-GK solution to the reaction mixture, resulting in a final concentration of 0.1 μg/mL. After initiation of the reaction, an increase in the optical concentration at 340 nm (OD340) was monitored with a microplate spectrophotometer (Varsamax, Molecular Devices Japan K.K.) every 10 seconds over an incubation period of 10 minutes. An inclination of the OD340 increase was defined as raw data. The GK activating rate was indicated as a numerical value obtained from the expression: (Inclination of OD340 increase by addition of the test compound)/(inclination of OD340 increase without addition of the test compound). The results of the GK activating rate obtained at a test compound concentration of 1 μmol/L under the condition of a glucose concentration of 2.5 mmol/L are shown in the following table.
row,SMILES,activity at 1 µM [%]
1,"COC(=O)NCCCSc1cnc(NC(=O)N2CC3(CCN(C(=O)OC)C3)c3cc(Cl)ccc32)s1 (stereo not drawn) [Example 455, methyl 5-chloro-1-((5-((3-((methoxycarbonyl)amino)propyl)thio)thiazol-2-yl)carbamoyl)spiro[indoline-3,3′-pyrrolidine]-1′-carboxylate]",606
2,"CNC(=O)C(=O)N1CCC2(C1)CN(C(=O)Nc1ncc(Cl)s1)c1ccc(Cl)cc12 (stereo not drawn) [Example 46, 5-chloro-N-(5-chlorothiazol-2-yl)-1′-(2-(methylamino)-2-oxoacetyl)spiro[indoline-3,3′-pyrrolidine]-1-carboxamide]",499
3,"COc1ccc2nc(NC(=O)N3CC4(CCN(C(C)=O)C4)c4cc(S(=O)(=O)NCc5ccccc5F)ccc43)sc2n1 (stereo not drawn) [Example 269, 1′-Acetyl-5-(N-(2-fluorobenzyl)sulfamoyl)-N-(5-methoxythiazolo[5,4-b]pyridin-2-yl)spiro[indoline-3,3′-pyrrolidine]-1-carboxamide]",640
4,"COC(=O)N1CCC2(C1)CN(C(=O)Nc1ncc(SCCC(=O)N3CCOCC3)s1)c1ccc(Cl)cc12 (stereo not drawn) [Example 154, methyl 5-chloro-1-((5-((3-morpholino-3-oxopropyl)thio)thiazol-2-yl)carbamoyl)spiro[indoline-3,3′-pyrrolidine]-1′-carboxylate]",473
5,"CCOC(=O)CCCc1ccc2c(c1)C1(CCN(C(=O)NC)C1)CN2C(=O)Nc1ncc(Cl)s1 (stereo not drawn) [Example 419, ethyl 4-(1-((5-chlorothiazol-2-yl)carbamoyl)-1′-(methylcarbamoyl)spiro[indoline-3,3′-pyrrolidin]-5-yl)butanoate]",535
6,"CNC(=O)N1CC[C@@]2(C1)CN(C(=O)Nc1ncc(F)s1)c1ccc(Cl)cc12 [Example 374, (R)-5-chloro-N1-(5-fluorothiazol-2-yl)-N1′-methylspiro[indoline-3,3′-pyrrolidine]-1,1′-dicarboxamide]",437
7,"COC(=O)N1CC[C@@]2(C1)CN(C(=O)Nc1nc3ccc(OC)nc3s1)c1ccc(S(=O)(=O)N(CCN(C)C)Cc3ccccc3)cc12 [Example 347, (S)-methyl 5-(N-benzyl-N-(2-(dimethylamino)ethyl)sulfamoyl)-1-((5-methoxythiazolo[5,4-b]pyridin-2-yl)carbamoyl)spiro[indoline-3,3′-pyrrolidine]-1′-carboxylate]",611
8,"CCOC(=O)CCNC(=O)N1CCC2(C1)CN(C(=O)Nc1ncc(Cl)s1)c1ccc(Cl)cc12 (stereo not drawn) [Example 462, Ethyl 3-(5-chloro-1-((5-chlorothiazol-2-yl)carbamoyl)spiro[indoline-3,3′-pyrrolidin]-1′-ylcarboxamido)propionate]",454
9,"COC(=O)N1CC[C@@]2(C1)CN(C(=O)Nc1nc3ccc(OC)nc3s1)c1ccc(S(=O)(=O)N(CCCC(=O)O)Cc3ccccc3)cc12 [Example 342, (S)-4-(N-benzyl-1′-(methoxycarbonyl)-1-((5-methoxythiazolo[5,4-b]pyridin-2-yl)carbamoyl)spiro[indoline-3,3′-pyrrolidin]-5-ylsulfonamido)butyric acid]",420
10,"O=C(CCNC(=O)N1CCC2(C1)CN(C(=O)Nc1ncc(Cl)s1)c1ccc(Cl)cc12)N1CCC1 (stereo not drawn) [Example 466, N1′-(3-(Azetidin-1-yl)-3-oxopropyl)-5-chloro-N1-(5-chlorothiazol-2-yl)spiro[indoline-3,3′-pyrrolidine]-1,1′-dicarboxamide]",446
11,"O=C(NCCO)N1CCC2(C1)CN(C(=O)Nc1ncc(Cl)s1)c1ccc(Cl)cc12 (stereo not drawn) [Example 459, 5-chloro-N1-(5-chlorothiazol-2-yl)-N1′-(2-hydroxyethyl)spiro[indoline-3,3′-pyrrolidine]-1,1′-dicarboxamide]",537
12,"CNC(=O)N1CC[C@@]2(C1)CN(C(=O)Nc1ncc(OC)s1)c1ccc(C(F)(F)F)cc12 [Example 489, (R)—N1-(5-Methoxythiazol-2-yl)-N1′-methyl-5-(trifluoromethyl)spiro[indoline-3,3′-pyrrolidine]-1,1′-dicarboxamide]",645
